What all share (assay): growth of human tumour cells (NCI), 48 h
The test system of assay [1] is HCT-15 colon.
Assay [2] relates to SN12C renal.
Assay [3] has as its system MDA-MB-231 breast.
The test system of assay [4] is OVCAR-3 ovarian.
The subject of assay [5] is SF-539 CNS.
The subject of assay [6] is 786-0 renal.
The subject of assay [7] is NCI-H226 lung.
Assay [8] deals with SK-MEL-2 melanoma.
Assay [9] deals with SK-MEL-5 melanoma.
Assay [10] relates to RXF 393 renal.

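48-hour exposure; five concentrations; linearly interpolated endpoints. The concentration for 50% growth inhibition is given as GI50. Definition used: TGI = concentration required for complete inhibition of growth.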

For the compound `COC(=O)[C@]12CC[C@@H](C)[C@H](C)[C@@H]1C1=CC[C@@H]3[C@@]4(C)C(C=O)=C[C@@](C)(COC(C)=O)[C@@H]4[C@H](O)C[C@@]3(C)[C@]1(C)CC2`, the GI50 was 1.54 µM in assay [1]; 2.3 µM in [2]; 2.27 µM in assay [3]; 1.82 µM in assay [4]; 1.93 µM in [5]; 1.89 µM in assay [6]. Also, the GI50 in [7] was 1.95 µM; in assay [8], 2.61 µM; in [9], 1.66 µM; in assay [10], 1.56 µM. The TGI in assay [1] was determined as 3.06 µM; in [2] it was 6.08 µM; in [3] it was 5.41 µM; in assay [4], 3.34 µM; in assay [5], 4.14 µM; in [6] it was 4.26 µM. Further, the TGI in [7] was found to be 4.8 µM; in assay [8] it was 6.15 µM; in assay [9], 3.19 µM; in [10] it was 3.03 µM.

As for `COc1cc(/C=C/C(=O)c2cc(F)c(Cl)cc2Cl)cc(OC)c1OC`, the GI50 in assay [1] was 19.8 µM; in [2] it was 27.7 µM; in assay [3], 15.7 µM; in assay [4], 14.5 µM; in [5] it was 28.1 µM; in [6], 22.9 µM. The GI50 in [7] was 79.9 µM; in [8] it was 15.8 µM; in [9] it was 49.6 µM; in [10], 17.2 µM. Besides, the TGI in assay [1] is 54.4 µM; in [2] it was more than 100 µM; in [3], more than 100 µM; in assay [4] it was 40 µM; in [5], more than 100 µM; in [6], 97.2 µM. Also, the TGI in [7] is more than 100 µM; in assay [8], 58.7 µM; in [9] it was more than 100 µM; in assay [10] it was 62.2 µM.

As for `COc1cc2c3c(n(CCCN4CCN(C)CC4)c(=O)c2cc1OC)-c1cc2c(cc1C3=O)OCO2`, the GI50 is 16 µM in assay [1]; 11.4 µM in assay [2]; 15.3 µM in assay [3]; 15.3 µM in [4]; 17.7 µM in [5]; 12.9 µM in assay [6]. The GI50 in assay [7] was 13.9 µM; in assay [8] it was more than 100 µM; in [9], 14.2 µM; in [10], 20.5 µM. In addition, the TGI worked out at 36.1 µM in [1]; 24.1 µM in [2]; 32.4 µM in [3]; 30.1 µM in [4]; 38.2 µM in assay [5]; 25.5 µM in assay [6]. The TGI in assay [7] was 31 µM; in [8] it was more than 100 µM; in [9], 32.2 µM; in assay [10], 55 µM.

`O=c1cccc(C#Cc2ccccc2)o1`: the GI50 in assay [1] was 6.9 µM; in [2], 14.5 µM; in assay [3], 6.05 µM; in assay [4] it was 2.42 µM; in assay [5] it was 3.72 µM; in [6], 2.2 µM. Moreover, the GI50 in [7] was 13.2 µM; in [8] it was 4.71 µM; in [9], 2.51 µM; in assay [10], 6.27 µM. For the same compound, the TGI in [1] is 23.6 µM; in assay [2], more than 53.2 µM; in assay [3] it was 25.8 µM; in assay [4], 11.1 µM; in assay [5] it was 27.6 µM; in assay [6], 15 µM. The TGI in [7] is more than 36.3 µM; in assay [8], more than 33.9 µM; in assay [9] it was 9.59 µM; in assay [10], 61.6 µM.

Take `CC(CN)[C@@H]1CC[C@]2(CO)CC[C@]3(C)[C@H](CC[C@@H]4[C@@]5(C)CCC(NCCO)C(C)(C)[C@@H]5CC[C@]43C)[C@@H]12` (stereo not given in full): the GI50 in assay [1] was 1.98 µM; in assay [2], 1.94 µM; in [3], 1.38 µM; in assay [4], 2.1 µM; in [5], 1.61 µM; in assay [6], 1.55 µM. In addition, the GI50 in assay [7] was 3.94 µM; in [8], 1.8 µM; in [9], 1.76 µM; in assay [10], 1.51 µM. For the same compound, the TGI was found to be 3.97 µM in assay [1]; 3.61 µM in assay [2]; 2.86 µM in assay [3]; 4.6 µM in assay [4]; 3.02 µM in assay [5]; 3 µM in [6]. The TGI amounted to 17.5 µM in [7], 3.42 µM in [8], 3.19 µM in assay [9] and 2.97 µM in assay [10].

In the case of `NC1=NC(c2ccccc2)N=C(Nc2ccccc2)N1` (stereo not given), the GI50 was more than 100 µM in [1]; more than 100 µM in assay [2]; more than 100 µM in [3]; 32 µM in assay [4]; more than 100 µM in [5]; more than 100 µM in assay [6]. Also, the GI50 is more than 100 µM in assay [7], more than 100 µM in assay [8], 93 µM in assay [9] and more than 100 µM in [10]. The TGI in [1], in [2], in assay [3], in assay [4], in [5] and in assay [6] was more than 100 µM in each case. The TGI in assay [7], in assay [8], in assay [9] and in assay [10] was more than 100 µM throughout.

`CN1CCN(c2ccc(-c3cnc4c(-c5csc6ccccc56)cnn4c3)cc2)CC1`: the GI50 in assay [1] is 3.65 µM; in assay [2], 14.8 µM; in assay [3] it was 4.88 µM; in assay [4], 3.02 µM; in assay [5], 2.36 µM; in [6] it was 4.35 µM. Besides, the GI50 was 13.5 µM in assay [7], more than 15 µM in [8], 2.48 µM in assay [9] and 3.5 µM in assay [10]. In addition, the TGI is more than 15 µM in [1]; more than 15 µM in [2]; 14.7 µM in assay [3]; 6.59 µM in [4]; 4.62 µM in assay [5]; 12.3 µM in [6]. For the same compound, the TGI in assay [7] was more than 15 µM; in assay [8], more than 15 µM; in assay [9] it was 4.54 µM; in assay [10], 10.7 µM.

These data come from PubChem BioAssay (NCI).
